# Read-outs that look alike come from different tables or passages of the source.
# Assays:
# 11β-HSD1 = biological target: T1, 11β-HSD1 (Homo sapiens, UniProt P28845); assay: Inhibition of 11β-HSD1 assay (cortisone to cortisol, microsomes, cortisol ELISA); type: biochemical; conditions: for IC50: 5 inhibitor concentrations, three independent determinations, read-out: IC50 ± SD 11β-HSD1; for % of 11β-HSD1 Inhibition 10 μM: inhibitor 10 µM, 150 min, 37 °C
# T1 construct: tissue XenoTech Lot No. 1410013; host or cells: pooled human liver microsomes
# T1 sequence (P28845 whole entry): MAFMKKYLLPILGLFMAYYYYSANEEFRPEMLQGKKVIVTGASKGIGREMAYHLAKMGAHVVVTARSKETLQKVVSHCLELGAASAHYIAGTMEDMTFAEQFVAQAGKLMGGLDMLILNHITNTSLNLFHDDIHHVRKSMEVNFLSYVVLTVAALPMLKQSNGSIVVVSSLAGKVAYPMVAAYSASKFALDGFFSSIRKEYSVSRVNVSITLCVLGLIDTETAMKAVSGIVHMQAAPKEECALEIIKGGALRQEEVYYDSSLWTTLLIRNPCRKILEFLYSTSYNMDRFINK
# Method: L160706125, was obtained from Cloud-Clone Corp. PBS, Lot No. H161008, was obtained from Pan Biotech. […] L191113457, was obtained from Cloud-Clone Corp. […] The microplates were incubated on an orbital shaker for 150 min at 37 °C. […] The quantity of cortisol formed from cortisone was determined using a cortisol ELISA kit, […].
# [1] = tested on: A172 (human brain glioblastoma); assay: MTT antiproliferative assay, A172; type: cell-based; conditions: for IC50: MTT, 72 h, A172 cells, read-out: IC50 ± SD A172; for SI HUVEC/A172: selectivity index = IC50 normal cell line / IC50 cancer cell line
# Method: (§1) All cell lines were obtained from ATCC, and all chemicals were purchased from Sigma-Aldrich, St. Louis, MO, USA. […] All media were supplemented with antibiotic and antimycotic solutions, according to the manufacturers’ instructions. MTT cytotoxicity assessments were performed as described previously. […] The cells counted using an automated cell counter (Countess® II FL, Invitrogen by Thermo Fisher Scientific Inc., Waltham, MA, USA) were plated in 96-well plates (Nunc Edge 2F, Thermo Fisher Scientific Inc.) at a density of 0.1 × 10^4 per well. After an additional 72 h, cells underwent an MTT cytotoxicity assay (see below). The IC50 values were calculated using ED50plus v 1.0 freeware software (Instituto Nacional de Enfermedades Respiratorias, Mexico City, Mexico). Each cell line was tested in three independent replicates.
# (§2) After the incubation time was complete, the medium was removed and crystals of formazan were solubilized in pure isopropanol. The absorbance readout was conducted immediately using a plate reader, Multiskan Spectrum, at 570 nm (Thermo Fisher Scientific Inc., Waltham, MA, USA). The background optical density was measured in the wells filled with the culture medium, without any cells.
# mushroom tyrosinase [2] = biological target: T2, mushroom tyrosinase (Agaricus bisporus, UniProt C7FF04); assay: Kinetic analysis of the inhibition of tyrosinase (Lineweaver-Burk); type: biochemical; conditions: compound at 0.05 mM; for Mechanism of Inhibition: Lineweaver-Burk plots; for Vmax: L-DOPA 100-250 µM
# T2 construct: purchased Sigma-Aldrich
# T2 sequence (C7FF04 1-392 limits assumed): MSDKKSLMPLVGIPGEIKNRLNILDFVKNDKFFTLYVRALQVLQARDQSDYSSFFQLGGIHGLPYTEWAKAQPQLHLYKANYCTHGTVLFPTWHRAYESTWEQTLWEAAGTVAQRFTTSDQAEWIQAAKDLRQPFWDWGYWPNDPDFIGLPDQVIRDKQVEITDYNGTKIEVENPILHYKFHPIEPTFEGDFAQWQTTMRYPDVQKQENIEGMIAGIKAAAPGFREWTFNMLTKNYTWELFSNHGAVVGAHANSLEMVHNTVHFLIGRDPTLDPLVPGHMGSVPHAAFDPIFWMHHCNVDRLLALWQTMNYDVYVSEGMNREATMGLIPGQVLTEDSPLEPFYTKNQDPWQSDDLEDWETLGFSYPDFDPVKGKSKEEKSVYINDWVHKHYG
# Method: A series of experiments were performed to determine the inhibition kinetics of compounds by following the already reported method. The inhibitor concentrations for compounds were 50 and 100 µM. The substrate L-DOPA concentration was between 100 and 250 µM in all kinetic studies. Maximal initial velocity was determined from the initial linear portion of absorbance up to ten minutes after the addition of the enzyme. The inhibition type of the enzyme, Michaelis constant (KM), and maximal velocity (Vmax) were determined by Lineweaver–Burk plots of the inverse of velocities (1/V) versus the inverse of substrate concentration 1/[L-DOPA] mM^−1.
# 11β-HSD2 = biological target: T3, 11β-HSD2 (Homo sapiens, UniProt P80365); assay: Inhibition of 11β-HSD2 assay (cortisol to cortisone, microsomes, cortisol ELISA); type: biochemical; conditions: inhibitor 10 µM, 150 min, 37 °C
# T3 construct: Human kidney microsomes, mixed gender, 0.5 mL, 10 mg/mL, Lot No. 1710160, were obtained from XenoTech; tissue XenoTech Lot No. 1710160; host or cells: human kidney microsomes
# T3 sequence (P80365 1-405): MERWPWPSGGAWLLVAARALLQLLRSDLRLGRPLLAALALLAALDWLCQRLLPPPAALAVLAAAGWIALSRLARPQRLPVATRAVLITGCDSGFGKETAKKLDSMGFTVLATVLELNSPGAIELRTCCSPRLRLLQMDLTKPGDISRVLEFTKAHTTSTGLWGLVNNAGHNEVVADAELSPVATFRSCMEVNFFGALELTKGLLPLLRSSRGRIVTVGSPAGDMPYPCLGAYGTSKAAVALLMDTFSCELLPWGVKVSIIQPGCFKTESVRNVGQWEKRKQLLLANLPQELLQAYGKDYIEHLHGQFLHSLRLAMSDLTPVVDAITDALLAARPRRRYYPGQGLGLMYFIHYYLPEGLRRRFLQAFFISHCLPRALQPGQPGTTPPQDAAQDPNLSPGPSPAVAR
# Method: The Enzyme-Linked Immunosorbent Assay (ELISA) Kit for 11-Beta-Hydroxysteroid Dehydrogenase Type 1, Lot No. L160706125, was obtained from Cloud-Clone Corp. PBS, Lot No. H161008, was obtained from Pan Biotech. […] The Enzyme-Linked Immunosorbent Assay (ELISA) Kit for 11-Beta-Hydroxysteroid Dehydrogenase Type 2, Lot No. L191113457, was obtained from Cloud-Clone Corp.
# The oxidation reaction of cortisol to cortisone was carried out on 96-well microtiter plates in the presence of the enzyme 11β-HSD2 in a total volume of 100 µL. To this end, 60 µL of phosphate buffer (pH 7.4), 10 µL of a microsomes(0.12 µg/mL […]) solution in PBS (final quantity 2.5 µg), 20 µL of substrate mixture cortisol/NAD (final concentration 200 nM/2 mM), and 10 µL of the appropriate inhibitor solution (solvent DMSO/water 1/99, final concentration 10 µM) were placed in each well. The microplates were incubated on an orbital shaker for 150 min at 37 °C. […] The quantity of unreacted cortisol was determined using a cortisol ELISA kit DiaMetra.
# mushroom tyrosinase [3] = biological target: T2, mushroom tyrosinase; assay: Mushroom tyrosinase inhibition assay (L-DOPA, dopachrome 475 nm); type: biochemical
# Method: The mushroom tyrosinase (Sigma-Aldrich) inhibition was performed following previously reported methods. […] The inhibitor solutions were prepared in DMSO with an initial concentration of 1 mM. Different aliquots were added to the solution containing the buffer, L-DOPA, and EDTA, with the enzyme being added last. […] Ascorbic acid was used as a reference inhibitor with an initial concentration of 1 mM. The IC50 values were calculated from the equation generated via exponential fit of the experimental data.
# [4] = tested on: HUVEC (human umbilical vein endothelial cells); assay: MTT antiproliferative assay, HUVEC healthy control; type: cell-based; conditions: 72 h, HUVEC normal cells, read-out: IC50 ± SD HUVEC
# Method: All cell lines were obtained from ATCC, and all chemicals were purchased from Sigma-Aldrich, St. Louis, MO, USA. Briefly, cells were cultivated in a controlled atmosphere using DMEM medium with fetal bovine serum (FBS) at a final concentration of 10% (A-172), an L15 medium with 15% FBS, cultivated without CO2 (MDA-MB-231), F12K with a heparin final concentration of 0.1 mg/mL, endothelial cell growth supplement with a final concentration of 0.03 mg/mL (HUVEC), and RPMI with 5% FBS. All media were supplemented with antibiotic and antimycotic solutions, according to the manufacturers’ instructions. MTT cytotoxicity assessments were performed as described previously. Briefly, cell lines A172, B16F10, MDA-MB-231, and HUVEC were seeded 24 h prior to the addition of the tested compounds. The cells counted using an automated cell counter (Countess® II FL, Invitrogen by Thermo Fisher Scientific Inc., Waltham, MA, USA) were plated in 96-well plates (Nunc Edge 2F, Thermo Fisher Scientific Inc.) at a density of 0.1 × 10^4 per well. After an additional 72 h, cells underwent an MTT cytotoxicity assay (see below). The IC50 values were calculated using ED50plus v 1.0 freeware software (Instituto Nacional de Enfermedades Respiratorias, Mexico City, Mexico). Each cell line was tested in three independent replicates.
# as §2, with “Twenty microliters of an MTT solution (MTT: 3-(4,5-dimethylthiazol-2-yl)-2,5-diphenyl tetrazolium bromide, stock solution: 5 mg/mL) was added to each cell line for 2 h (A172, B16F10, MDA-MB-231, and HUVEC). After” for “After”
# B16F10 (murine melanoma) = assay: MTT antiproliferative assay, B16F10; type: cell-based; conditions: for IC50: MTT, 72 h, B16F10 cells, read-out: IC50 ± SD B16F10; for SI HUVEC/ B16F10: selectivity index = IC50 normal cell line / IC50 cancer cell line
# Method: as §1, §2
# [5] = tested on: MDA-MB-231 (human breast adenocarcinoma); assay: MTT antiproliferative assay, MDA-MB-231; type: cell-based; conditions: for IC50: MTT, 72 h, MDA-MB-231 cells, read-out: IC50 ± SD MDA-MB-231; for SI HUVEC/ MDA-MB-231: selectivity index = IC50 normal cell line / IC50 cancer cell line
# Method: as §1, §2
# [6] = L-DOPA 0.17 mM, pH 6.8, room temperature, read-out: IC50 ± SD mushroom tyrosinase
IC50 (11β-HSD1),% of 11β-HSD1 Inhibition 10 μM (11β-HSD1),IC50 [1],Mechanism of Inhibition (mushroom tyrosinase [2]),Vmax (mushroom tyrosinase [2]),% of 11β-HSD2 Inhibition 10 μM (11β-HSD2),IC50 (mushroom tyrosinase [3]; [6]),IC50 (B16F10 (murine melanoma)),IC50 [5],Substance,SI HUVEC/A172 [1],IC50 [4],SI HUVEC/ B16F10 (B16F10 (murine melanoma)),SI HUVEC/ MDA-MB-231 [5],"IC50 (mushroom tyrosinase [3]; rounded values in SAR summary, unit mM, read-out: IC50 tyrosinase inhibition)"
7.05 ± 0.25 µM,73.51%,6.07 ± 1.06 µM,Uncompetitive,0.0521 mM/min,32.55%,0.105 ± 0.00908 mM,5.11 µM,6.96 ± 0.74 µM,"2-(2-(1,2-Dicarba-closo-Dodecaboranylmethylene)Hydrazinyl)-4-(4-Nitrophenyl)Thiazole [4g]",>1.65,> 10 µM,>1.96,>1.44,–
6.9 ± 1.2 µM,64.44%,6.15 ± 0.26 µM,Activator,0.0912 mM/min,27.36%,0.145 ± 0.0144 mM,5.37 ± 0.11 µM,6.56 ± 0.12 µM,"4-(4-Bromophenyl)-2-(2-(1,2-Dicarba-closo-Dodecaboranylmethylene)Hydrazinyl)Thiazole [4b]",1.21,7.46 ± 0.13 µM,1.39,1.14,–
7.03 ± 0.53 µM,60.07%,5.77 ± 0.96 µM,Mixed,0.1656 mM/min,25.47%,0.13 ± 0.0209 mM,5.03 ± 0.69 µM,6.54 ± 0.52 µM,"4-(4-Chlorophenyl)-2-(2-(1,2-Dicarba-closo-Dodecaboranylmethylene)Hydrazinyl)Thiazole [4a]",1.19,6.87 ± 0.33 µM,1.37,1.05,–

Substance,IC50 (11β-HSD1),% of 11β-HSD1 Inhibition 10 μM (11β-HSD1),IC50 [1],Mechanism of Inhibition (mushroom tyrosinase [2]),Vmax (mushroom tyrosinase [2]),% of 11β-HSD2 Inhibition 10 μM (11β-HSD2),IC50 (mushroom tyrosinase [3]; [6]),IC50 (B16F10 (murine melanoma)),IC50 [5],SI HUVEC/A172 [1],IC50 [4],SI HUVEC/ B16F10 (B16F10 (murine melanoma)),SI HUVEC/ MDA-MB-231 [5],"IC50 (mushroom tyrosinase [3]; rounded values in SAR summary, unit mM, read-out: IC50 tyrosinase inhibition)"
"2-(2-(1,2-Dicarba-closo-Dodecaboranylmethylene)Hydrazinyl)-4-p-Tolylthiazole [4d]",9.05 ± 0.25 µM,55.78%,7.88 ± 0.98 µM,Mixed,0.3820 mM/min,27.83%,0.121 ± 0.0219 mM,> 10 µM,6.85 ± 0.86 µM,1.06,8.32 ± 0.09 µM,–,1.21,0.121 mM

# From publication PMC11477717, “Synthesis of Carborane–Thiazole Conjugates as Tyrosinase and 11β-Hydroxysteroid Dehydrogenase Inhibitors: Antiproliferative Activity and Molecular Docking Studies” (Molecules, 2024)
